# Data reported in publication PMC4923880, “Urbilaterian origin of paralogous GnRH and corazonin neuropeptide signalling pathways” (Scientific Reports, 2016).
# pEC50: −log10 of the molar value. Square brackets hold non-standard residues; d marks the D form. Ends that are not written are not given here. Peptide text beside a SMILES is read from it. pGlu = O=C1CC[C@@H](C(=O)O)N1
# Columns and labels:
# ArGnRHR = ArGnRHR (Asterias rubens, UniProt A0A1B0YGS0); assay: Bioluminescence (Ca2+) receptor activation assay, ArGnRHR in CHO-K1 cells with aequorin and Gα16; assay type: cell-based; conditions: for activation of ArGnRHR (bioluminescence response, in words) / activation of ArGnRHR by other GnRH/CRZ-type or starfish neuropeptides (in words): CHO-K1/aequorin/Gα16 cells; for activation of ArGnRHR (bioluminescence response, in words): concentrations 10^−4 M to 10^−14 M, peptide 2 over the same concentration range as peptide 1; for activation of ArGnRHR by other GnRH/CRZ-type or starfish neuropeptides (in words): 10 μM, Supplementary Figure S8
# Description: (§1) ArGnRHR and ArCRZR were cloned as described previously[23] and the positions of the primers used are indicated in Supplementary Figures S1 and S2. Next, the ORF of ArGnRHR was amplified using the oligos 5′-aagcttCACCATGGCGACTACATC-3′ and 5′-ctcgagTTATACACATTTCTCAG-3′ and subcloned into the eukaryotic expression vector pcDNA 3.1+ (Invitrogen) that was cut with HindIII and XhoI; The ORF of ArCRZR was amplified using the oligos 5′- gatatcCACCATGAGTGTTCAAT-3′ and 5′-tctagaTCAGGTTGTTGTTGTGA-3′ and subcloned into pcDNA 3.1+ that was cut with EcoRV and XbaI. A partial Kozak translation initiation sequence (CACC) was also introduced in the upstream primer. Chinese hamster ovary (CHO)-K1 cells stably overexpressing the human Gα16 protein and mitochondrial targeted apo-aequorin were used as a heterologous expression system to functionally characterize the receptors. Cells were cultured, transfected and a bioluminescence assay performed as described previously. The A. rubens neuropeptides pQIHYKNPGWGPG-NH2 and HNTFTMGGQNRWKAG-NH2 were custom synthesized by PPR Ltd (Fareham, UK) and were tested as candidate ligands for ArGnRHR and ArCRZR at concentrations ranging from 10^−4 M to 10^−14 M. Ca^2+ responses were normalized to the total Ca^2+ response monitored after addition of Triton X-100 (0.1%). Dose–response data were determined as a % of the highest response (100% activation). EC50 values were calculated from dose–response curves based on at least three independent transfections (Prism 6.0). Other GnRH/CRZ-type neuropeptides (Drosophila AKH and Drosophila AKH) and other starfish neuropeptides (NGFFYamide, SALMFamide-1 and SALMFamide-2[16][24]) were also tested (at 10 μM) to assess the specificity of receptor activation.
# ArCRZR = ArCRZR (Asterias rubens, UniProt A0A1B0YGT7); assay: Bioluminescence (Ca2+) receptor activation assay, ArCRZR in CHO-K1 cells with aequorin and Gα16; assay type: cell-based; conditions: for activation of ArCRZR by other GnRH/CRZ-type or starfish neuropeptides (in words): 10 μM, Supplementary Figure S8
# Description: as §1
# [1] = test system: cells transfected with an empty vector; assay: Bioluminescence assay, cells transfected with an empty vector (control); assay type: cell-based, Chinese hamster; conditions: data not shown
# Description: as §1, with “Chinese hamster ovary (CHO)-K1 cells stably overexpressing the human Gα16 protein and mitochondrial targeted apo-aequorin were used as a heterologous expression system to functionally characterize the receptors. Cells were cultured, transfected and a bioluminescence assay performed as described previously.” left out, “Other GnRH/CRZ-type neuropeptides (Drosophila AKH and Drosophila AKH) and other starfish neuropeptides (NGFFYamide, SALMFamide-1 and SALMFamide-2[16][24]) were also tested (at 10 μM) to assess the specificity of receptor activation.” left out
# CRZ-type receptor = conditions: one of two CRZ-type receptors; ref [14]; cited from earlier work
# Description: (§2) It is not known, however, if this predicted mature peptide actually exists in B. floridae. […] Thus, it remains to be established whether or not distinct GnRH-type and CRZ-type signalling pa ...
# GnRH-type receptors = conditions: two GnRH-type receptors; ref [14]; cited from earlier work
# Description: as §2
# ArGnRHR, sequence (A0A1B0YGS0 entry or part of it): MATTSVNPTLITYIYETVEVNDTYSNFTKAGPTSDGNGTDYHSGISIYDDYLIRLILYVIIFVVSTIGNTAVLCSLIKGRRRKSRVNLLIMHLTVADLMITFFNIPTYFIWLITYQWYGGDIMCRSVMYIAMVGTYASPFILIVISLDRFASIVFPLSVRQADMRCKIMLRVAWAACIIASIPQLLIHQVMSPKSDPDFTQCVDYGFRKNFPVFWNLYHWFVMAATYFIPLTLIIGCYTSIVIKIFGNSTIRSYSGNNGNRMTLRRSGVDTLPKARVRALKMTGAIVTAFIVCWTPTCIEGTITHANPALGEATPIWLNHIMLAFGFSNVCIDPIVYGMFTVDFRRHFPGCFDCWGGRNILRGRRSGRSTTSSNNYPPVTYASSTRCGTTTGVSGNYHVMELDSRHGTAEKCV
# ArCRZR, sequence (A0A1B0YGT7 entry or part of it): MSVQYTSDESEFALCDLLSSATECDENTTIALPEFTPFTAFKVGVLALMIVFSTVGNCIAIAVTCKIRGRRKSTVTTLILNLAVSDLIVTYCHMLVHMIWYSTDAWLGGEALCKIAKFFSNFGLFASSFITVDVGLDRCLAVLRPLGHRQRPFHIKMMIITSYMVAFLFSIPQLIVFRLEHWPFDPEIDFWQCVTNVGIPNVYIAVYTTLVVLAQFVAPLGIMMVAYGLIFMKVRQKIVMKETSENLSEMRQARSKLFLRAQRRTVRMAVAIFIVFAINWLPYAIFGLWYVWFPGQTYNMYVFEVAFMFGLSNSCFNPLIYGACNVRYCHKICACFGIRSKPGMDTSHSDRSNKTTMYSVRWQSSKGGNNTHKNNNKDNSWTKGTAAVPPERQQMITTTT
compound,measurement,setting,value
CC[C@H](C)[C@H](NC(=O)[C@@H]1CCC(=O)N1)C(=O)N[C@@H](Cc1c[nH]cn1)C(=O)N[C@@H](Cc1ccc(O)cc1)C(=O)N[C@@H](CCCCN)C(=O)N[C@@H](CC(N)=O)C(=O)N1CCC[C@H]1C(=O)NCC(=O)N[C@@H](Cc1c[nH]c2ccccc12)C(=O)NCC(=O)N1CCC[C@H]1C(=O)NCC(N)=O [peptide 1] ([pGlu]IHYKNPGWGPG-NH2),pEC50,ArGnRHR,9.22
same,"activation of ArGnRHR (bioluminescence response, in words)",ArGnRHR,dose-dependent activation
same,"activation of ArGnRHR (bioluminescence response, in words)",ArGnRHR; listed as Peptide 1,dose-dependent stimulation of a bioluminescence response
same,"activation of ArGnRHR (bioluminescence response, in words)",ArGnRHR; listed as pQIHYKNPGWGPG-NH2,specifically activates an A. rubens GnRH-type receptor
same,"activation of ArCRZR (bioluminescence response, in words)","ArCRZR; CHO-K1/aequorin/Gα16 cells, concentrations 10^−4 M to 10^−14 M, peptide 1 over a similar concentration range as peptide 2",no effect
same,response of cells transfected with an empty vector (in words),[1],Neither peptide 1 nor peptide 2 elicited any response
CSCC[C@H](NC(=O)[C@@H](NC(=O)[C@H](Cc1ccccc1)NC(=O)[C@@H](NC(=O)[C@H](CC(N)=O)NC(=O)[C@@H](N)Cc1c[nH]cn1)[C@@H](C)O)[C@@H](C)O)C(=O)NCC(=O)NCC(=O)N[C@@H](CCC(N)=O)C(=O)N[C@@H](CC(N)=O)C(=O)N[C@@H](CCCNC(=N)N)C(=O)N[C@@H](Cc1c[nH]c2ccccc12)C(=O)N[C@@H](CCCCN)C(=O)N[C@@H](C)C(=O)NCC(N)=O [peptide 2] (H-HNTFTMGGQNRWKAG-NH2),pEC50,ArCRZR,6.94
"CRZ: other GnRH/CRZ-type peptide (Drosophila corazonin) (QTFQYSRGWTN; ends and bridges not checked; UniProt Q26377 20-30, looked up)",activation of ArGnRHR by other GnRH/CRZ-type or starfish neuropeptides (in words),ArGnRHR,Neither receptor was activated
same,activation of ArCRZR by other GnRH/CRZ-type or starfish neuropeptides (in words),ArCRZR; CHO-K1/aequorin/Gα16 cells,Neither receptor was activated
"Drosophila AKH: other GnRH/CRZ-type peptide (Drosophila adipokinetic hormone) (QLTFSPDW; ends and bridges not checked; UniProt P61855 23-30, looked up)",activation of ArGnRHR by other GnRH/CRZ-type or starfish neuropeptides (in words),ArGnRHR,Neither receptor was activated
same,activation of ArCRZR by other GnRH/CRZ-type or starfish neuropeptides (in words),ArCRZR; CHO-K1/aequorin/Gα16 cells,Neither receptor was activated
NGFFYamide,activation of ArGnRHR by other GnRH/CRZ-type or starfish neuropeptides (in words),ArGnRHR,Neither receptor was activated
same,activation of ArCRZR by other GnRH/CRZ-type or starfish neuropeptides (in words),ArCRZR; CHO-K1/aequorin/Gα16 cells,Neither receptor was activated
pQILCARAFTYTHTW-NH2 [candidate neuropeptide in the cephalochordate Branchiostoma floridae],activation of B. floridae CRZ-type receptors (in words),CRZ-type receptor,activates one of two CRZ-type receptors
same,activation of B. floridae GnRH-type receptors (in words),GnRH-type receptors,neither of two GnRH-type receptors
